Assay [1] concerns CCRF-CEM. The experiment in a line: Induction of apoptosis in human CCRF-CEM cells assessed as viable cells at 50 uM after 24 hrs by annexinV and propidium iodide staining based FACS analysis (reference value: 96.4 +/- 1.2%). It counts as functional. Conditions: read-out: Activity.
In assay [2] the target is Casein kinase I isoform alpha (Homo sapiens) (UniProt P48729). The experiment in a line: Inhibition of CK1-alpha1 (unknown origin) assessed as enzyme activity at 10 uM. Also noted: scale not given: the % may be the effect or the level left.
Assay [3] deals with T1, Serine/threonine-protein kinase D2 (Homo sapiens) (UniProt Q9BZL6).
T1 sequence (whole entry): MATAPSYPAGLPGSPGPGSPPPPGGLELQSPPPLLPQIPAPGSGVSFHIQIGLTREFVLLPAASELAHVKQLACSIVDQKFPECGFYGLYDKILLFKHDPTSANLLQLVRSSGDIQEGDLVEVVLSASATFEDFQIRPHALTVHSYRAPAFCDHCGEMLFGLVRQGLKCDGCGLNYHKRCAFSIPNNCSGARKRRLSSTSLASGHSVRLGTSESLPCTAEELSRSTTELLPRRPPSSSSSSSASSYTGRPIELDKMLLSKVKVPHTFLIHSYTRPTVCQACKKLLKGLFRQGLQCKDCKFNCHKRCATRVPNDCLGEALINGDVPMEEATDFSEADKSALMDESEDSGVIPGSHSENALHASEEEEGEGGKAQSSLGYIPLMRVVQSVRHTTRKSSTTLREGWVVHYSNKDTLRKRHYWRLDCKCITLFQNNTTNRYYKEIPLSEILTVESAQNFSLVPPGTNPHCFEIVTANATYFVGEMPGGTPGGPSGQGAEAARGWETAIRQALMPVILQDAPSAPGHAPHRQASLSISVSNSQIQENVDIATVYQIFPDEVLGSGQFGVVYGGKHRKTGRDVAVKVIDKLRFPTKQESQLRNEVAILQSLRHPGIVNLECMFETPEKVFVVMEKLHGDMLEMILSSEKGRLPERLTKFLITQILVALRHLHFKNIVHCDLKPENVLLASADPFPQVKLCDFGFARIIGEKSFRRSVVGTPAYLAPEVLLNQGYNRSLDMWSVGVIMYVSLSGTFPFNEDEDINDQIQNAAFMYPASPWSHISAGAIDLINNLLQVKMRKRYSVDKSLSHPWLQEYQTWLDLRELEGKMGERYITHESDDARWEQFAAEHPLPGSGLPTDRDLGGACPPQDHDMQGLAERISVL
The experiment in a line: Inhibition of PRKD2 (unknown origin) assessed as enzyme activity at 10 uM. Set-up: scale not given: the % may be the effect or the level left.

For assay [4], the system named is CCRF-CEM. The assay is described as follows: Induction of apoptosis in human CCRF-CEM cells assessed as necrotic cells at 50 uM after 24 hrs by annexinV and propidium iodide staining based FACS analysis (reference value: 0.1 +/- 0.1%). It counts as functional. On the technique in general: A flow cytometer gives signals particle by particle.
The test system of assay [5] is CCRF-CEM. The experiment in a line: Induction of apoptosis in human CCRF-CEM cells assessed as late apoptotic cells at 50 uM after 24 hrs by annexinV and propidium iodide staining based FACS analysis (reference value: 1.9 +/- 0.5%). The class given is functional.
The target in assay [6] is Mitogen-activated protein kinase 3 (Homo sapiens) (UniProt P27361). The experiment in a line: Inhibition of Erk1 (unknown origin) assessed as enzyme activity at 10 uM. Also noted: scale not given: the % may be the effect or the level left.
For assay [7], the target named is T2, CDK2/Cyclin A2 (Homo sapiens) (UniProt P24941+P20248). The assay is described as follows: Inhibition of CDK2/CycA2 (unknown origin) assessed as enzyme activity at 10 uM. Also noted: scale not given: the % may be the effect or the level left. The class given is protein-complex assay.
Assay [8] is filed under the species Homo sapiens. The experiment in a line: Inhibition of PKA (unknown origin) assessed as enzyme activity at 10 uM. Set-up: scale not given: the % may be the effect or the level left.
For assay [9], the system named is MCF7. The assay is described as follows: Cytotoxicity against human MCF7 cells assessed as cell viability at 10 uM after 24 hrs by MTT assay. The class given is functional. Conditions: MCF7, 24 h, read-out: Activity. In general terms: Formazan colour is commonly taken as a measure of viable cells.
The subject of assay [10] is CCRF-CEM. The experiment in a line: Induction of apoptosis in human CCRF-CEM cells assessed as late apoptotic cells at 10 uM after 24 hrs by annexinV and propidium iodide staining based FACS analysis (reference value: 1.9 +/- 0.5%). It counts as functional.
The target of assay [11] is Dual specificity tyrosine-phosphorylation-regulated kinase 1A (Homo sapiens) (UniProt Q13627). The experiment in a line: Inhibition of DYRK1A (unknown origin) assessed as enzyme activity at 10 uM. Set-up: scale not given: the % may be the effect or the level left.
Assay [12] has as its system CCRF-CEM. The experiment in a line: Cytotoxicity against human CCRF-CEM cells assessed as cell viability at 10 uM after 24 hrs by MTT assay. The class given is functional. Conditions: read-out: Activity.
The test system of assay [13] is CCRF-CEM. The experiment in a line: Cytotoxicity against human CCRF-CEM cells assessed as cell viability at 50 uM after 24 hrs by MTT assay. The class given is functional. Conditions: read-out: Activity.
Assay [14] has as its system CCRF-CEM. The experiment in a line: Induction of apoptosis in human CCRF-CEM cells assessed as early apoptotic cells at 50 uM after 24 hrs by annexinV and propidium iodide staining based FACS analysis (reference value: 1.5 +/- 0.8%). The class given is functional.
For assay [15], the system named is CCRF-CEM. The experiment in a line: Induction of apoptosis in human CCRF-CEM cells assessed as viable cells at 10 uM after 24 hrs by annexinV and propidium iodide staining based FACS analysis (reference value: 96.4 +/- 1.2%). The class given is functional. The conditions noted are these: read-out: Activity.
Assay [16] has as its system CCRF-CEM. The assay is described as follows: Induction of apoptosis in human CCRF-CEM cells assessed as necrotic cells at 10 uM after 24 hrs by annexinV and propidium iodide staining based FACS analysis (reference value: 0.1 +/- 0.1%). It counts as functional.
Assay [17] has as its target Serine/threonine-protein kinase pim-1 (Homo sapiens) (UniProt P11309). The assay is described as follows: Inhibition of PIM1 (unknown origin) assessed as enzyme activity at 10 uM. Set-up: scale not given: the % may be the effect or the level left.
The target of assay [18] is Homeodomain-interacting protein kinase 1 (Homo sapiens) (UniProt Q86Z02). The assay is described as follows: Inhibition of HIPK1 (unknown origin) assessed as enzyme activity at 10 uM. Set-up: scale not given: the % may be the effect or the level left.
Assay [19] has as its system CCRF-CEM. The assay is described as follows: Induction of apoptosis in human CCRF-CEM cells assessed as early apoptotic cells at 10 uM after 24 hrs by annexinV and propidium iodide staining based FACS analysis (reference value: 1.5 +/- 0.8%). The class given is functional.
In assay [20] the test system is MCF7. The experiment in a line: Cytotoxicity against human MCF7 cells assessed as cell viability at 50 uM after 24 hrs by MTT assay. The class given is functional. Conditions: MCF7, 24 h, read-out: Activity.
Assay [21] relates to CCRF-CEM. The assay is described as follows: Cytotoxicity against human CCRF-CEM cells assessed as cell viability at 20 uM after 24 hrs by MTT assay. The class given is functional. Conditions: read-out: Activity.
Assay [22] relates to MCF7. The experiment in a line: Cytotoxicity against human MCF7 cells assessed as cell viability at 20 uM after 24 hrs by MTT assay. It counts as functional. Conditions: MCF7, 24 h, read-out: Activity.
Assay [23] deals with Homeodomain-interacting protein kinase 1 (Homo sapiens) (UniProt Q86Z02). The experiment in a line: Inhibition of HIPK1 (unknown origin) assessed as enzyme activity at 5 uM. Also noted: scale not given: the % may be the effect or the level left.
For assay [24], the target named is Mitogen-activated protein kinase 3 (Homo sapiens) (UniProt P27361). The experiment in a line: Inhibition of Erk1 (unknown origin) assessed as enzyme activity at 5 uM. Also noted: scale not given: the % may be the effect or the level left.
Assay [25] deals with Dual specificity tyrosine-phosphorylation-regulated kinase 1A (Homo sapiens) (UniProt Q13627). The experiment in a line: Inhibition of DYRK1A (unknown origin) assessed as enzyme activity at 5 uM. Also noted: scale not given: the % may be the effect or the level left.
Assay [26] concerns the target Serine/threonine-protein kinase pim-1 (Homo sapiens) (UniProt P11309). The assay is described as follows: Inhibition of PIM1 (unknown origin) assessed as enzyme activity at 5 uM. Set-up: scale not given: the % may be the effect or the level left.
The target of assay [27] is T2, CDK2/Cyclin A2 (Homo sapiens). The assay is described as follows: Inhibition of CDK2/CycA2 (unknown origin) assessed as enzyme activity at 5 microM. The class given is protein-complex assay. Set-up: scale not given: the % may be the effect or the level left.
Assay [28] deals with Casein kinase II subunit alpha (Homo sapiens, UniProt P68400). The assay is described as follows: Inhibition of recombinant human CK2alpha using RRRDDDSDDD substrate peptide by scintillation counter in presence of [32P]ATP.
The species entered for assay [29] is Homo sapiens. The assay is described as follows: Inhibition of PKA (unknown origin) assessed as enzyme activity at 5 uM. Set-up: scale not given: the % may be the effect or the level left.
The target of assay [30] is Casein kinase II (Homo sapiens) (UniProt P67870+P68400+P19784). The conditions noted are these: CCRF-CEM, 5 uM.
Assay [31] addresses Casein kinase I isoform alpha (Homo sapiens) (UniProt P48729). The assay is described as follows: Inhibition of CK1-alpha1 (unknown origin) assessed as enzyme activity at 5 uM. Set-up: scale not given: the % may be the effect or the level left.
For assay [32], the target named is T1, Serine/threonine-protein kinase D2 (Homo sapiens). The experiment in a line: Inhibition of PRKD2 (unknown origin) assessed as enzyme activity at 5 uM. Set-up: scale not given: the % may be the effect or the level left.

Take `Brc1c(Br)c(Br)c2[nH]cnc2c1Br`: the viability at 50 µM in the assay with CCRF-CEM [1] was 18.8%; in the assay on CCRF-CEM [13] it was 7%; with MCF7 [20], 40%. Further, the Activity in [2] was 48%; in [3], 5%; in the assay with CCRF-CEM [4], 1%; in the assay on CCRF-CEM [5], 26%; in [6], 78%; in [7], 23%. Besides, the Activity in the assay filed under Homo sapiens [8] came to 75%; with CCRF-CEM [10], 2.7%; in assay [11], 3%; in the assay on CCRF-CEM [14] it was 59.2%; in the assay on CCRF-CEM [16], 0.1%; in [17] it was 2%. The Activity in assay [18] worked out at 9%; with CCRF-CEM [19] it was 2.4%. Also, the values for the viability at 10 µM in the assay on MCF7 [9], in the assay on CCRF-CEM [12] and in the assay with CCRF-CEM [15] were 94%, 92% and 94.8%, respectively. Moreover, the viability at 20 µM in the assay on CCRF-CEM [21] came to 67%; in the assay on MCF7 [22], 77%.
For `Cc1nc2c(Br)c(Br)c(Br)c(Br)c2[nH]1`, the Activity was 43% in assay [23]; 0.4% in the assay on CCRF-CEM [4]; 92% in assay [24]; 27.3% in the assay on CCRF-CEM [5]; 15.3% in the assay with CCRF-CEM [10]; 17% in assay [25]. For the same compound, the Activity in assay [26] is 6%; in [27], 20%; in the assay listed under Homo sapiens [29], 113%; in the assay on CCRF-CEM [14] it was 59.8%; in the assay on CCRF-CEM [16] it was 0.5%; in assay [31] it was 84%. Also, the Activity was 14% in [32] and 47.3% in the assay on CCRF-CEM [19]. In addition, the viability at 50 µM in the assay on CCRF-CEM [1] amounted to 14.2%; in the assay with CCRF-CEM [13] it was 6%; in the assay with MCF7 [20], 33%. In addition, the viability at 10 µM in the assay on MCF7 [9] is 76%; with CCRF-CEM [12], 29%; with CCRF-CEM [15], 36.7%. The Ki (in general, a measure of affinity in units of concentration, obtained from inhibition or displacement) in assay [28] worked out at 1110 nM. For the same compound, in assay [30], the inhibition (commonly the relative decrease from the control value, in per cent) was 20%. Moreover, the viability at 20 µM in the assay with CCRF-CEM [21] came out at 15%; in the assay with MCF7 [22], 66%.

For the origin of these results see ChEMBL document CHEMBL3751801, “Synthesis of novel polybrominated benzimidazole derivatives-potential CK2 inhibitors with anticancer and proapoptotic activity” (Bioorg Med Chem, 2016).
